Assay results reported in publication PMC6240096, “A hPSC-based platform to discover gene-environment interactions that impact human β-cell and dopamine neuron survival” (Nature Communications, 2018).

Tests used:
CD29+CD73+ MSCs = test: Inhibition curve on hESC-derived MSCs; assay type: cell-based, human; details: cell survival rate, 4 days, n=3
Description: (§1) hESCs-derived INS^+ cells, MSCs[43], neurons, and hepatocytes[44] were derived based on the reported protocols and re-plated on 96-well plates with Accutase digestion. Cardiomyocytes (CMs) were differentiated from H9-MYH6: mCherry reporter line, based on the reported protocol. After overnight incubation, cells were treated with DMSO or different doses of hit compounds for 4 days. After fixation, the cells were stained with markers for each cell type. DAPI was used to stain cell nuclei. Plates were analyzed by ImageXpress^MICRO Automated High-Content Analysis System.
Supplementary Figure 4. Assessment of the toxic effect of propargite on different type […]
(a) Flow cytometry char acterization of CD29+ and CD73+ mesenchymal stem cells (MSCs) derived from H1 hESCs. (b-c) microscope image (b) and flow cytometry (c) characterization of cardiomyocytes expressing MYH6+ derived from a MYH6:mCherry reporter hESC line. (d-e) Immunocytochemistry characterization of MAP2+/TUJ1+ and HuC/D+/MAP2+ neurons (d) and A1AT+/ASGPR1+ hepatocytes (e) derived from H1 hESCs. All the cells were counterstained by DAPI (blue). Scale bars, 100 µm. (f) Inhibition curve of propargite on pancreatic β-like cells, MSCs, cardiomyocytes, neurons, and hepatocytes derived from hESCs, and BJ-fibroblasts (n=3). Values presented as mean±S.D. […]

GSTT1+/+ INS+ cells = test: Inhibition curve on INS+ cells derived from GSTT1+/+ H1 hESCs; assay type: cell-based, human; details: H1 hESC-derived, n = 3; read-out: IC50 of GSTT1+/+-1 INS+ cells
Description: as §1
(§2) CRISPR sgRNA sequences were designed using the web resources available at http://www.genome-engineering.org/. The target sequences are listed in Supplementary Table 2. Each target sequence was cloned into the pX330-U6-Chimeric_BB-CBh-hSpCas9 vector (Addgene plasmid #42230) to make the gene targeting constructs. To knockout the target genes, two sgRNAs were validated using the surveyor assay in 293T cells, and we chose 1 sgRNA-construct plasmid for further experiments. After validation, H1 or INS^GFP/W HES3 cells were dissociated using Accutase (STEM CELL) and electroporated (8 × 10^5 cells per sample) with 4 μg sgRNA-construct plasmids using Human Stem Cell Nucleofector^TM solution (Lonza) following manufacturer’s instructions. […] A portion of the cells was analyzed by DNA sequencing. […]

MIN6 cells = test: Ki67 proliferation staining of MIN6 cells; assay type: cell-based, mouse; details: 1.6 μM propargite vs DMSO, 4 days
Description: (§3) Cells were fixed with 10% (v/v) formalin for 20 min at room temperature (RT) and blocked in a solution of Mg^2+- and Ca^2+-free PBS containing 5% horse serum and 0.3% Triton-X for 1 h at room temperature and followed by incubation with primary antibody at 4 °C overnight. The following primary antibodies and dilutions have been used in this study: goat anti-SOX17 (1:500, R&D system, AF1924), rabbit anti-FOXA2 (1:500, Upstate, 07-633), goat anti-PDX1 (1:500, R&D system, AF2419), mouse anti-NKX6.1 (1:100; BCBC, Ab2024), guinea pig anti-INS (1:1000, Dako, A0564), guinea pig anti-GLUCAGON (1:500, Linco, 4031), mouse anti-Ki67 (1:100, Life technologies, 556003), mouse anti-AMYLASE (1:100, Santa Cruz, sc-46657), rabbit anti-Active Caspase-3 (1:500, BD Bioscience, 559565), mouse anti-Troponin T (1:500, Thermo Scientific, MA5-12960), mouse anti-Actin, Cardiac (1:300, Sigma, A9357), rabbit anti-TUJ1 (1:500, Covance, MRB-435P), Chicken anti-MAP2 (1:1000, Abcam, Ab5392), mouse anti-HuC/D (1:500, Invitrogen, A-21271), mouse anti-MAP2 (1:1500, Sigma, M1406), rabbit anti-TH (1:500, Pel freeze, P40101-0), rat-anti-CTIP2 (1:500, Abcam, ab18465), goat anti-FOXA2 (1:200, R&D, 463783). Donkey anti-guinea pig, mouse, goat, rabbit or chicken secondary antibodies conjugated with Alexa-Fluor-488, Alexa-Fluor-594 or Alexa-Fluor-647 fluorophore (1:500, Life technologies) were used. […]

hESC-derived INS+ cells = test: Ki67 proliferation staining of hESC-derived INS+ cells; assay type: cell-based, human; details: 1.6 µM propargite vs DMSO
Description: as §3

GSTT1-/- INS+ cells = test: Inhibition curve on INS+ cells derived from GSTT1-/- H1 hESCs; assay type: cell-based, human; details: H1 hESC-derived, n = 3; read-out: IC50 for GSTT1-/--1 INS+ cells
Description: as §1, §2

## 2-(4-tert-butylphenoxy)-cyclohexyl prop-2-yne-1-sulfonate [propargite]
CD29+CD73+ MSCs
  IC50: 5850 nM
GSTT1+/+ INS+ cells
  IC50: 2150 nM
MIN6 cells
  percentage of Ki67+/INS+ cells: No significant difference
hESC-derived INS+ cells
  percentage of Ki67+/INS+ cells: did not affect
GSTT1-/- INS+ cells
  IC50: 1170 nM
